Measurements from patent publication US5108916A, “Process for stereoselectively hydrolyzing, transesterifying or esterifying with immobilized isozyme of lipase from Candida rugosa” (priority 1989, dated 1992).
Where “and” joins values, the source holds several entries; their conditions need not be identical. Equal entries are not always repeated. Where two headings read alike, the source gives them in different places.

What was measured:
Solubility of HPPA-Me = assay type: physicochemical
Lipase MY [1] = test: Product inhibition of Lipase MY; assay type: biochemical, Candida rugosa
Description: Two hydrolysis reactions were run to determine the effect of methanol, produced as a by-product of the hydrolysis of HPPA-Me, on the activity of Lipase MY. (R,S)-HPPA-Me, 1.5 moles, 1 L of 1 M NH4 OAc, pH 6.5, 150 ml toluene, and 2 g Lipase MY were placed in flasks with and without 0.75 moles of methanol. The mixtures were shaken gently and sampled at various times to determine the concentrations of each of the stereoisomers of HPPA which were produced.
To determine the effect of the (R)-HPPA produced during the hydrolysis of (R,S)-HPPA-Me on the activity of Lipase MY, a series of three experiments were performed. Ammonium acetate, 200 ml, 0.04 M, pH 7.0, was combined with 30 ml of toluene, 40 mmoles (R,S)-HPPA-Me, 25 mg Lipase MY, and 0, 30, or 100 mM (R)-HPPA. The reactions were shaken gently for 136 hours and sampled at various times to determine the concentrations of each of the stereoisomers of HPPA which were produced.

Lipase MY [2] = test: Effect of reducing agents on immobilized Lipase MY in the presence of HPPA; assay type: biochemical, Candida rugosa; conditions: for prevention of loss of enzyme activity: repeated batches, Tables 3-5
CSC-2 = test: Effect of additives and solvents on hydrolysis of ketoprofen monoglyceride by CSC-2; assay type: biochemical, Candida rugosa; conditions: solvent/buffer 1:1 two phase, 26 hours; for Relative Rate: buffer = 100
Description: Hydrolysis of ketoprofen-monoglyceride (50mg) was carried out in various DMF-100mM (NH4)H2 PO4 buffer (pH 5.5) mixtures. In each flask a solution of ketoprofen monoglyceride (50mg) in DMF (200ul) was added. DMF was added followed by 100mM (NH4)H2 PO4 buffer. […] After 22 hours, 2%, 5%, and 10% DMF samples were acidified, extracted with CHCl3 (2×10ml) and analyzed. The other samples were analyzed directly as in Example 18. The acid produced decreases with increasing amount of DMF.
Small amounts of DMF were added to the reaction mixture to increase the solubility of KPG. In all cases 100mM ammonium phosphate buffer (pH 5.5) was used and 2% (v/v) detergents were added and the total volume was 10ml.
The buffer reaction (entry #2 in the table) contained enzyme in buffer (2 ml) and the buffer only (entry #1 in the table) reaction contained no enzyme.
The presence of a surfactant like Tween increases the solubility o lipophilic compounds in water. […] Tween 80 was added to make 1% and 2% solution (v/v). Bovine serum albumin (BSA) (10mg) was added to each of two flasks. A solution of 50mg of ketoprofen monoglyceride in 200ul DMF was added to each. After 20 hours at 250 rpm and 35° C. the reaction mixtures were acidified, extracted and analyzed by the usual HPLC procedure as in Example 18.
Various surfactants were used at 2% of the reaction volume to determine their effect on the enzymatic reaction involving the conversion of ketoprofen monoglyceride (KPG) to ketoprofen (KP). […] Flasks were covered with parafilm and incubated in a 35° C. water bath at 250 rpm, typically overnight. Reactions were stopped by acidification, extracted with CHCl3 (2×10 ml). The %acid and %ee were determined by the method of Example 18. It is to be noted that Hydrophile-Lipophile Balance (HLB) values have no apparent bearing on the ability of the surfactant to enhance the conversion of KPG to KP.
75 mg of KPG (in the absence of DMF) was individually weighed into 50 ml Erlenmeyer flasks. […] 9 ml of 100 mM (NH4)H2 PO4, pH 5.5 buffer was added, and the flasks were placed into a 35° C., 250 rpm water bath incubator for 20 hours. The reactions were acidified, extracted with CHCl3 and examined by HPLC as in Example 18. The %ee was determined as per Example 18.
Various amounts of oleic acid or its esters were added, and the reactions stopped at the times indicated, acidified, extracted with CHCl3 and analyzed as in Example 18.
An experiment was performed as in Example 41, but using 100, 200 and 500 ul of olive oil to determine if it would enhance the rate of conversion of KPG to KP. […] After 20 hours, all reactions were acidified, extracted with CHCl3 and analyzed by HPLC as in Example 18. The results are given below:
50 mg of KPG was weighed into Erlenmeyer flasks. […] Flasks were incubated at 35° C., 250 rpm for 23 hours. The reactions were stopped by acidification, extracted with CHCl3, and analyzed by HPLC as in Example 18. The additive is listed along with its percentage composition of glycerides of oleic acid.
To determine the problems associated with having oleic acid or oleate. esters in the reaction media, the following experiment was performed. […] Flasks were placed in a 35° C. incubator at 250 rpm, and the reactions were sampled by taking 200 ul aliquots at various time points. These aliquots were analyzed by HPLC (ODS-3 RAC column, CH3 OH: 10 mM (NH4)H2 PO4 (60:40) eluant, 4 ml/min, 254 nm detection) to determine the course of reaction. When approximately 40% acid was produced, the reactions were stopped by placing the flasks in the -70° C. freezer. Two extraction procedures were utilized to determine the best method of isolating S-Ketoprofen free of oleic acid. The first (listed as Extraction Procedure I in the following table) involved first making the solution basic (pH 10) with NaOH, then extracting with hexane, then CHCl3.

Lipase MY [3] = test: Two phase Lipase MY hydrolysis of HPPA-Me in organic solvent/water mixtures; assay type: biochemical, Candida rugosa
Description: A. 75% organic solvent/25% aqueous buffer--Fifty milligrams of R,S-HPPA-Me was combined in 10 ml Scintillation vial with 7.5 ml of organic solvent, 2.5 ml of 50 mM phosphate buffer pH 6.0, and 5 mg Lipase MY. The reactions were placed on shaker and shaken for a period of 0-43 hours with samples being taken at various times.
B. 25% organic solvent/75% aqueous buffer--Fifty milligrams of R,S-HPPA-Me was combined, in 10 ml Scintillation vial with 2.5 ml of organic solvent, 7.5 ml 50mM phosphate buffer (pH 6.8), and 5 mg Lipase MY. The reactions were shaken for a period of 0-143 hours with samples being taken at various time points.
The data in Table 2 represents the % conversion and % R-HPPA produced using the indicated organic solvents in a two-phase system wherein 75% […] of the total vehicle (solvent) was water and the balance (25%) was organic solvents.

[4] = Conversion of ketoprofen esters in organic solvent/oleic acid media; assay type: biochemical
Description: To optimize the organic solvent used in the presence of oleic acid a variety of organic solvents were used, along with a variety of ketoprofen esters. In this experiment, 50 mg of ketoprofen esters were weighed into flasks, along with 1 ml of oleic acid and 9 ml of an organic solvent. The flasks were capped and incubated at 35° C., 250 rpm, for 10-26 hours before stopping the reaction by first adding 4 ml CHCl3 to solubilize the substrates and products, then filtering through a 0.2 um Gelman Nylaflo filter. Samples were then diluted in methanol and analyzed by HPLC as in Example 18. The experiment was also performed using 200 ul of oleic acid and 10ml buffer, which was acidified, extracted with CHCl3 and analyzed by HPLC as above.
One ml of oleic acid was added, as was 9 ml of buffer (100 mM (NH4)H2 PO4, pH 5.5) or organic solvent. Flasks were placed into a 35° C. incubator and shaken at 250 rpm for 13 hours. Reaction was stopped by adding 5 ml CHCl3 to solubilize the organic material and filtering the solutions using 0.2 um Gelman Nylaflo membranes to remove the enzyme. Samples were analyzed on an ODS-3 RAC column using CH3 OH:10 mM (NH4)H2PO4 (60:40) as eluant, flow rate 4 ml/min, and detection at 254 nm. %ee was determined by the resolution of diastereomeric amides on the above HPLC system, as per Example 18.

[5] = 2 mg/ml in 1M HPPA, 4 days, control enzyme 100%, HPPA treated 70.4%
[6] = KPG 50 mg, 100 mg CSC-2 on silica (279-SD-1), 9 ml solvent (or buffer)/1 ml oleic acid, 13 hours

COC(=O)C(C)Oc1ccc(O)cc1 (racemic) [HPPA-ME, (R,S)-(+)-methyl-2-(4-hydroxyphenoxy)-propionate]
solubility (Solubility of HPPA-Me; aqueous solution, pH 6.5, read-out: solubility): < 25 mM
Solubility (HPPA-ME) (Solubility of HPPA-Me; in trichlorotrifluoroethane): insoluble
solubility (Solubility of HPPA-Me; organic solvent or mixture, in 1,1,2 trichloroethane, read-out: Solubility (HPPA-ME)): 558 mg/mL
solubility (Solubility of HPPA-Me; organic solvent or mixture, in 1,2-dibromoethane, read-out: Solubility (HPPA-ME)): 566 mg/mL
solubility (Solubility of HPPA-Me; organic solvent or mixture, in carbon tetrachloride, read-out: Solubility (HPPA-ME)): 33 mg/mL
solubility (Solubility of HPPA-Me; organic solvent or mixture, in cumene, read-out: Solubility (HPPA-ME)): 20 mg/mL
solubility (Solubility of HPPA-Me; organic solvent or mixture, in cyclohexane, read-out: Solubility (HPPA-ME)): 66.4 mg/mL
solubility (Solubility of HPPA-Me; organic solvent or mixture, in fluorobenzene, read-out: Solubility (HPPA-ME)): 156 mg/mL
solubility (Solubility of HPPA-Me; organic solvent or mixture, in tetrachloroethylene, read-out: Solubility (HPPA-ME)): 1.4 mg/mL
solubility (Solubility of HPPA-Me; organic solvent or mixture, in toluene, read-out: Solubility (HPPA-ME)): 236 mg/mL

CC(Oc1ccc(O)cc1)C(=O)O (centres unmarked) [HPPA, 2-(4-hydroxyphenoxy)propionic acid]
reduction in enzyme activity (Lipase MY [1]; various amounts (30, 100 mM) at the beginning): 10-67%
solubility (Solubility of HPPA-Me; aqueous solution, pH 6.5): high solubility

O=S([O-])S(=O)[O-].[Na+].[Na+] [Na2 S2 O4, sodium hydrosulfite]
Relative Activity (Lipase MY [2]; 8 mg/ml, 5760 min): 111%
Relative Activity (Lipase MY [2]; 16 mg/ml, 5760 min): 112%
Conversion (%) of HPPA-Me to HPPA (Lipase MY [2]; Na2S2O4 25 mg, batches as E39): 25% and 21% and 34% and 23% and 29% and 18% and 31%
prevention of loss of enzyme activity (Lipase MY [2]): effective at preventing loss of enzyme activity

O=S([O-])[O-].[Na+].[Na+] [Na2 SO3, sodium sulfite]
Relative Activity (Lipase MY [2]; [5]): 95%
Relative Activity (Lipase MY [2]; 4 mg/ml): 101%
Relative Activity (Lipase MY [2]; 8 mg/ml, 5760 min): 110%
Relative Activity (Lipase MY [2]; 16 mg/ml, 5760 min): 111%
Conversion (%) of HPPA-Me to HPPA (Lipase MY [2]; Na2SO3 10 mg, batches as E44): 26% and 20% and 16% and 14% and 13% and 15%
prevention of loss of enzyme activity (Lipase MY [2]): Neither sodium sulfite nor cystine was effective

ClC(Cl)(Cl)Cl [carbon tetrachloride]
EE of S-acid (CSC-2): 95%
Relative Rate (CSC-2): 48
% R (Lipase MY [3]; solvent 25%, 2.7 hr): 79%
Conversion (ester/acid) (Lipase MY [3]; solvent 25%, 2.7 hr): 58%
% R (Lipase MY [3]; solvent 75%, 2.7 hr): 76%
Conversion (ester/acid) (Lipase MY [3]; solvent 75%, 2.7 hr): 61%

CC(C)c1ccccc1 [cumene]
EE of S-acid (CSC-2): 86%
Relative Rate (CSC-2): 91
% R (Lipase MY [3]; solvent 25%, 2.7 hr): 100%
Conversion (ester/acid) (Lipase MY [3]; solvent 25%, 2.7 hr): 35%

C1CCCCC1 [cyclohexane]
% Acid ([4]; KPEG 50 mg, as E212): 29%
% ee S-acid ([4]; KPEG, as E212): 83%
% Acid [4, 6]: 38%
% ee S-acid ([4]; KPG, as E212): 98%
EE of S-acid (CSC-2): 95%
Relative Rate (CSC-2): 185
% R (Lipase MY [3]; solvent 25%, 2.7 hr): 100%
Conversion (ester/acid) (Lipase MY [3]; solvent 25%, 2.7 hr): 35%
% R (Lipase MY [3]; solvent 75%, 2.7 hr): 83%
Conversion (ester/acid) (Lipase MY [3]; solvent 75%, 2.7 hr): 31%

N[C@@H](CSSC[C@H](N)C(=O)O)C(=O)O [cystine]
Relative Activity (Lipase MY [2]; [5]): 83%
Relative Activity (Lipase MY [2]; 4 mg/ml): 76%
Relative Activity (Lipase MY [2]; 8 mg/ml, 5760 min): 81%
Relative Activity (Lipase MY [2]; 16 mg/ml, 5760 min): 83%
conversion of HPPA-Me (quantity not headed in Table 5) (Lipase MY [2]; Cystine 2.5 mg, 15 hrs, batch #: 1, 5, 9, 15, 16, 20, 21, 22): 30 and 19 and 17 and 16 and 20
prevention of loss of enzyme activity (Lipase MY [2]): Neither sodium sulfite nor cystine was effective

CO [methanol]
decrease in activity of the enzyme against HPPA-Me (Lipase MY [1]; 0.5 equivalents at the start of the reaction): 39%

ClC(Cl)=C(Cl)Cl [tetrachloroethylene]
% Acid ([4]; KPEG 50 mg, as E212): 0%
% ee S-acid ([4]; KPEG, as E212): 0%
% Acid [4, 6]: 1%
% ee S-acid ([4]; KPG, as E212): 0%
EE of S-acid (CSC-2): 27%
Relative Rate (CSC-2): 3
% R (Lipase MY [3]; solvent 25%, 5.3 hr): 83%
Conversion (ester/acid) (Lipase MY [3]; solvent 25%, 5.3 hr): 61%
% R (Lipase MY [3]; solvent 75%, 5.3 hr): 85%
Conversion (ester/acid) (Lipase MY [3]; solvent 75%, 5.3 hr): 58%

Cc1ccccc1 [toluene]
EE of S-acid (CSC-2): 58%
Relative Rate (CSC-2): 15
% R (Lipase MY [3]; solvent 25%, 2.7 hr): 100%
% R (Lipase MY [3]; solvent 75%, 2.7 hr): 90%
Conversion (ester/acid) (Lipase MY [3]; solvent 75%, 2.7 hr): 25%

tetrabutylammonium cyanoborohydride [Bu4 N CNBH3]
Relative Activity (Lipase MY [2]; 1m hppa phosphate, pH 6.5, 5760 min, 5760 min): 83% and 81% and 88% and 85%

xylenes
EE of S-acid (CSC-2): 81%
Relative Rate (CSC-2): 44
% R (Lipase MY [3]; solvent 25%, 5.3 hr): 100%
Conversion (ester/acid) (Lipase MY [3]; solvent 25%, 5.3 hr): 49%
% R (Lipase MY [3]; solvent 75%, 5.36 hr): 89%
Conversion (ester/acid) (Lipase MY [3]; solvent 75%, 5.36 hr): 41%
